# Laboratory results taken from patent US10219516B2, “Molecules having pesticidal utility, and intermediates, compositions, and processes, related thereto” (priority 2015, dated 2019).
# Like-named read-outs stand apart in the source and are kept apart here.
# How the values were obtained:
# [1] = tested on: Beet Armyworm (Spodoptera exigua, LAPHEG); assay: Bioassay on Beet Armyworm (BAW), 128-well diet tray assay; assay type: in vivo
# Outline: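 Second instar larvae were exposed to diet treated at 50 μg/cm^2 for five to seven days at 25° C.; mortality was averaged over eight wells.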
# [2] = tested on: Cabbage Looper (Trichoplusia ni, TRIPNI); assay: Bioassay on Cabbage Looper (CL), 128-well diet tray assay; assay type: in vivo; settings: Trichoplusia ni
# Outline: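 Test molecule is dissolved in 90:10 acetone-water and applied at 50 μg/cm^2 onto artificial diet, then dried. One to five second-instar larvae go into each of eight wells. Trays, sealed but vented, stay at 25° C., 14:10 light-dark, five to seven days, after which mortality is averaged.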
# [3] = Species BAW (Beet Armyworm), read-out: BAW (Biological Results, rating)
# [4] = Species CL (Cabbage Looper), read-out: CL (Biological Results, rating)
# [5] = Beet Armyworm, 128-well diet tray assay, read-out: BAW rating
# [6] = Cabbage Looper, 128-well diet tray assay, read-out: CL rating
Compound,"pest or weed control at 50 µg/cm2 [1, 3] [%]","pest or weed control at 50 µg/cm2 [2, 4] [%]","pest or weed control at 50 µg/cm2 [1, 5] [%]","pest or weed control at 50 µg/cm2 [2, 6] [%]"
"Cc1cc(N(C)C(=O)OC(C)(C)C)ccc1NC(=O)c1cc(NC(=O)[C@H]2[C@H](c3cc(Cl)cc(Cl)c3)C2(Cl)Cl)ccc1Cl (relative stereo) [F198, trans-tert-Butyl-(4-(2-chloro-5-(2,2-dichloro-3-(3,5-dichlorophenyl)cyclopropane-1-carboxamido)benzamido)-3-methylphenyl)(methyl)carbamate]",50 to 100,50 to 100,,
"CNc1cc(NC(=O)c2cc(NC(=O)[C@H]3[C@H](c4cc(Cl)cc(Cl)c4)C3(Cl)Cl)ccc2Cl)ccc1C (relative stereo) [F207, trans-2-Chloro-5-(2,2-dichloro-3-(3,5-dichlorophenyl)cyclopropane-1-carboxamido)-N-(4-methyl-3-(methylamino)phenyl)benzamide]",50 to 100,50 to 100,,
"Cc1cc(N(C)C(=O)OC(C)(C)C)ccc1NC(=O)c1cc(NC(=O)[C@H]2[C@H](c3cc(Cl)c(Cl)c(Cl)c3)C2(Cl)Cl)ccc1Cl (relative stereo) [F218, trans-tert-Butyl-(4-(2-chloro-5-(2,2-dichloro-3-(3,4,5-trichlorophenyl)cyclopropane-1-carboxamido)benzamido)-3-methylphenyl)(methyl)carbamate]",50 to 100,50 to 100,,
"Cc1cc(N(C)C(=O)OC(C)(C)C)ccc1N(C)C(=O)c1cc(NC(=O)[C@H]2[C@H](c3cc(Cl)cc(Cl)c3)C2(Cl)Cl)ccc1Cl (relative stereo) [F220, trans-tert-Butyl-(4-(2-chloro-5-(2,2-dichloro-3-(3,5-dichlorophenyl)cyclopropane-1-carboxamido)-N-methylbenzamido)-3-methylphenyl)(methyl)carbamate]",50 to 100,50 to 100,,
"CNc1ccc(N(C)C(=O)c2cc(NC(=O)[C@H]3[C@H](c4cc(Cl)cc(Cl)c4)C3(Cl)Cl)ccc2Cl)c(C)c1 (relative stereo) [F225, trans-2-Chloro-5-(2,2-dichloro-3-(3,5-dichlorophenyl)cyclopropane-1-carboxamido)-N-methyl-N-(2-methyl-4-(methylamino)phenyl)benzamide]",50 to 100,50 to 100,,
"CC(=O)Nc1ccc(NC(=O)c2cc(NC(=O)[C@H]3[C@H](c4cc(Cl)cc(Cl)c4)C3(Cl)Cl)c(Cl)cc2Cl)cc1 (relative stereo) [F255, trans-N-(4-Acetamidophenyl)-2,4-dichloro-5-(2,2-dichloro-3-(3,5-dichlorophenyl)cyclopropane-1-carboxamido)benzamide]",50 to 100,0 to 50,,
"N#Cc1ccc(NC(=O)c2cc(NC(=O)[C@H]3[C@H](c4cc(Cl)cc(Cl)c4)C3(Cl)Cl)ccc2Cl)nc1N (relative stereo) [F292, N-(6-Amino-5-cyanopyridin-2-yl)-2-chloro-5-(trans-2,2-dichloro-3-(3,5-dichlorophenyl)cyclopropane-1-carboxamido)benzamide]",50 to 100,50 to 100,,
"O=C(Nc1ncncc1F)c1cc(NC(=O)[C@H]2[C@H](c3cc(Cl)cc(Cl)c3)C2(Cl)Cl)ccc1Cl (relative stereo) [F318, trans-2-Chloro-5-(2,2-dichloro-3-(3,5-dichlorophenyl)cyclopropane-1-carboxamido)-N-(5-fluoropyrimidin-4-yl)benzamide]",50 to 100,50 to 100,,
"Cc1cc(NC(=O)OC(C)(C)C)ccc1NC(=O)c1cc(NC(=O)[C@H]2[C@H](c3cc(Cl)cc(Br)c3)C2(Cl)Cl)ccc1Cl (relative stereo) [F335, tert-Butyl (4-(5-(trans-3-(3-bromo-5-chlorophenyl)-2,2-dichlorocyclopropane-1-carboxamido)-2-chlorobenzamido)-3-methylphenyl)carbamate]",50 to 100,50 to 100,,
"Cc1cc(N)ccc1NC(=O)c1cc(NC(=O)[C@H]2[C@H](c3ccc(Cl)c(Br)c3)C2(Cl)Cl)ccc1Cl (relative stereo) [F336, N-(4-Amino-2-methylphenyl)-5-(trans-3-(3-bromo-4-chlorophenyl)-2,2-dichlorocyclopropane-1-carboxamido)-2-chlorobenzamide]",50 to 100,50 to 100,,
"Nc1c(F)ccc(NC(=O)c2cc(NC(=O)[C@H]3[C@H](c4ccc(Cl)c(Br)c4)C3(Cl)Cl)ccc2Cl)c1F (relative stereo) [F338, N-(3-Amino-2,4-difluorophenyl)-5-(trans-3-(3-bromo-4-chlorophenyl)-2,2-dichlorocyclopropane-1-carboxamido)-2-chlorobenzamide]",50 to 100,50 to 100,,
"Nc1ccc([C@H]2[C@H](C(=O)Nc3ccc(Cl)c(C(=O)Nc4ccc(F)cc4)c3)C2(Cl)Cl)cc1 (relative stereo) [F425, 5-(trans-3-(4-aminophenyl)-2,2-dichlorocyclopropane-1-carboxamido)-2-chloro-N-(4-fluorophenyl)benzamide]",,,50 to 100,50 to 100
"O=C(Nc1ccc2c(c1)C(=O)NC2=O)c1cc(NC(=O)[C@H]2[C@H](c3cc(Cl)cc(Cl)c3)C2(Cl)Cl)ccc1Cl (relative stereo) [F439, trans-2-Chloro-5-(2,2-dichloro-3-(3,5-dichlorophenyl)cyclopropane-1-carboxamido)-N-(1,3-dioxoisoindolin-5-yl)benzamide]",,,50 to 100,50 to 100
"O=C(Nc1ccc(-c2ncco2)cc1)c1cc(NC(=O)[C@H]2[C@H](c3cc(Cl)cc(Cl)c3)C2(Cl)Cl)ccc1Cl (relative stereo) [F446, trans-2-Chloro-5-(2,2-dichloro-3-(3,5-dichlorophenyl)cyclopropane-1-carboxamido)-N-(4-(oxazol-2-yl)phenyl)benzamide]",,,50 to 100,50 to 100
"O=C(Nc1ccc2c(ccn2Cc2ccccc2)c1)c1cc(NC(=O)[C@H]2[C@H](c3cc(Cl)cc(Cl)c3)C2(Cl)Cl)ccc1Cl (relative stereo) [F458, N-(1-Benzyl-1H-indol-5-yl)-2-chloro-5-(trans)-(2,2-dichloro-3-(3,5-dichlorophenyl)cyclopropane-1-carboxamido)benzamide]",,,50 to 100,50 to 100
"O=C(Nc1ccc2[nH]c(C(F)(F)F)cc2c1)c1cc(NC(=O)[C@H]2[C@H](c3cc(Cl)cc(Cl)c3)C2(Cl)Cl)ccc1Cl (relative stereo) [F465, 2-Chloro-5-(trans)-(2,2-dichloro-3-(3,5-dichlorophenyl)cyclopropane-1-carboxamido)-N-(2-(trifluoromethyl)-1H-indol-5-yl)benzamide]",,,50 to 100,50 to 100
"CN(C(=O)OC(C)(C)C)c1cc(NC(=O)c2cc(NC(=O)[C@H]3[C@H](c4cc(Cl)cc(Cl)c4)C3(Cl)Cl)ccc2Cl)ccc1F (relative stereo) [F471, trans-tert-Butyl (5-(2-chloro-5-(2,2-dichloro-3-(3,5-dichlorophenyl)cyclopropane-1-carboxamido)benzamido)-2-fluorophenyl)(methyl)carbamate]",,,50 to 100,50 to 100
"CC(C)(C)OC(=O)n1ccc2cc(NC(=O)c3cc(NC(=O)[C@H]4[C@H](c5cc(Cl)cc(Cl)c5)C4(Cl)Cl)ccc3Cl)ccc21 (relative stereo) [F484, tert-Butyl 5-(2-chloro-5-(trans)-(2,2-dichloro-3-(3,5-dichlorophenyl)cyclopropane-1-carboxamido)benzamido)-1H-indole-1-carboxylate]",,,50 to 100,50 to 100
"CC(C)(C)OC(=O)Nc1cccc(NC(=O)c2cc(NC(=O)[C@H]3[C@H](c4cc(Cl)cc(Cl)c4)C3(Cl)Cl)ccc2Cl)n1 (relative stereo) [F505, tert-Butyl (6-(2-chloro-5-(trans-2,2-dichloro-3-(3,5-dichlorophenyl)cyclopropane-1-carboxamido)benzamido)pyridin-2-yl)carbamate]",,,50 to 100,50 to 100
"O=C(Nc1ncc(F)cc1F)c1cc(NC(=O)[C@H]2[C@H](c3cc(Cl)cc(C(F)F)c3)C2(Cl)Cl)ccc1Cl (relative stereo) [F584, 2-Chloro-5-(trans-2,2-dichloro-3-(3-chloro-5-(difluoromethyl)phenyl)cyclopropane-1-carboxamido)-N-(3,5-difluoropyridin-2-yl)benzamide]",,,50 to 100,50 to 100
"O=C(Nc1ccc(F)cc1)c1cc(NC(=O)[C@H]2[C@H](c3cc(F)cc(Cl)c3)C2(Cl)Cl)ccc1Cl (relative stereo) [PF1, trans-2-Chloro-5-(2,2-dichloro-3-(3-chloro-5-fluorophenyl)cyclopropane-1-carboxamido)-N-(4-fluorophenyl)benzamide]",,,50 to 100,50 to 100
"CN(C(=O)c1cc(NC(=O)[C@H]2[C@H](c3cc(F)cc(Cl)c3)C2(Cl)Cl)ccc1Cl)c1ccc(F)cc1 (relative stereo) [PF2, trans-2-Chloro-5-(2,2-dichloro-3-(3-chloro-5-fluorophenyl)cyclopropane-1-carboxamido)-N-(4-fluorophenyl)-N-methylbenzamide]",,,50 to 100,50 to 100
